Measurements reported in PubChem BioAssay AID1919006 (Molecular Pharmacology Branch, DTP, NCI, 2023).

System: 885512-296-R-J2-PDC complex spheroid growth, % test/control
Test: Anticancer human tumor 885512-296-R-J2-PDC patient-derived breast carcinoma cell line growth inhibition [AhR]
Conditions: for IC50: curve of first compound; for viability, T/C: stronger effect = lower value; active = viability on the fitted dose curve at most 10% of control; inactive = the rest
Excerpt: Multicellular complex tumor spheroid response to aryl hydrocarbon receptor antagonists in combination with a variety of drugs and investigational agents in selected tumor cell lines
The current study was undertaken to assess response to aryl hydrocarbon receptor antagonists in combination with standard-of-care drugs and investigational agents in solid tumor complex spheroid models. Complex spheroids include a stromal component modeled by human endothelial cells (HUVEC) and fibroblasts modeled by human mesenchymal stem cells (MSCs). The concentration ranges selected for each drug and investigational agent were based upon clinically achievable concentrations if the clinical Cmax of the agent was known.
Compounds. The drugs and investigational agents: BAY 2416964 (NSC825713), GNF351 (NSC835774), CH-223191 (NSC835775), CPI-455 (NSC825282), aza-TdCyd (NSC777586), decitabine (NSC127716), belinostat (NSC758774), entinostat (NSC756642), pevonedistat (NSC761192), tazemetostat (NSC777109), talazoparib (NSC765396), olaparib (NSC753686), selinexor (NSC780203), nedisertib (M3814, NSC802822), bortezomib (NSC756655), venetoclax (NSC766270), doxorubicin (NSC123127), elimusertib (BAY189344, NSC800525), ceralasertib (AZD6738, NSC777638), TAK-243 (NSC785004), alisertib (NSC759677), etoposide (NSC141540), topotecan (NSC609699), eribulin (NSC707389), gemcitabine (NSC613327), carboplatin (NSC241240), cisplatin (NSC119875), and SN-38 (NSC673596) were obtained from the National Cancer Institute (NCI) Developmental Therapeutics Program Chemical Repository (32). The FDA-approved anticancer drug set is available from the Developmental Therapeutics Program at https://dtp.cancer.gov/organization/dscb/obtaining/available plates.htm. […] The stock solutions were prepared in dimethyl sulfoxide (DMSO, Sigma-Aldrich, St. Louis, MO, cat. D2650), except for the platinum compounds which were prepared in saline (Quality Biological, Gaithersburg, MD, cat. 114-055-101), at 800-fold the tested concentration and stored at -70 degrees C prior to their use. All drugs and investigational agents were tested over a range starting from a high concentration at or near the clinical Cmax and decreasing in half-log increments. If the clinical Cmax for an agent had not been determined, the highest concentration tested was 10 microM (Table 1).
Cell Culture. All cells were maintained in an incubator at 37 degrees C and 5% CO2 with 95% humidity. The PDC lines were cultured according to standard operating procedures established by the NCI PDMR (https://pdmr.cancer.gov). Briefly, all PDCs were thawed and cultured in Matrigel-coated flasks prepared with a working solution of 1X Ham's F-12 nutrient mix, without supplementation (Invitrogen, Waltham, MA, cat. 11765054), 100 U/mL penicillin-streptomycin (Invitrogen, cat. 15140122), and 2.5% Matrigel (Corning Inc., Corning, NY, cat. 354248) for the first three passages. All PDCs were cultured in complete DMEM/F-12 media containing advanced DMEM/F-12 (Invitrogen, cat. 12634028), 4.9% defined fetal bovine serum, heat inactivated (HyClone Laboratories Inc., Logan, UT, cat. SH30070.03HI), 389 ng/mL hydrocortisone (Sigma-Aldrich, cat. H4001), 9.7 ng/mL human EGF recombinant protein (Invitrogen, cat. PHG0313), 23.4 microg/mL adenine (Sigma-Aldrich, cat. A2786), 97.3 U/mL penicillin-streptomycin (Invitrogen, cat. 15140122), 1.9 mM L-glutamine (Invitrogen, cat. 25030081), and 9.7 microM Y-27632 dihydrochloride (Tocris Bioscience, Bristol, United Kingdom, cat. 1254). The PDCs were cultured in complete DMEM/F12 media without 10 microM Y-27632 dihydrochloride for at least two passages prior to the screen. The established cell lines NCI-H1341 and […] were cultured in DMEM/F-12, HEPES (Invitrogen, cat. 11330032), 5% defined fetal bovine serum (HyClone Laboratories Inc., cat. SH30070.03), ITS premix universal culture supplement [insulin (5 microg/mL), transferrin (5 microg/mL), and selenious acid (5 ng/mL)] […]
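Note: spheroids exposed to compounds for seven days.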

COc1cc(C2c3cc4c(cc3C(OC3OC5COC(C)OC5C(O)C3O)C3COC(=O)C23)OCO4)cc(OC)c1O (stereo not given) + CC(CO)NC(=O)c1cc(-c2ccc(Cl)cc2)nn(-c2cnn(C)c2)c1=O
771 nM: IC50 (second compound 0.1 µM)
active: viability, T/C (second compound 0.1 µM, first compound 10 µM) 7.1% | viability, T/C (second compound 0.316 µM, first compound 10 µM) 7.53% | viability, T/C (second compound 1 µM, first compound 10 µM) 8.44% | viability, T/C (second compound 3.16 µM, first compound 10 µM) 7.27%
671 nM: IC50 (second compound 1 µM)
694 nM: IC50 (second compound 0.316 µM)
310 nM: IC50 (second compound 10 µM)
490 nM: IC50 (second compound 3.16 µM)
inactive: viability, T/C (second compound 0.1 µM, first compound 0.0316 µM) 102% | viability, T/C (second compound 0.1 µM, first compound 0.1 µM) 106% | viability, T/C (second compound 0.1 µM, first compound 0.316 µM) 85.9% | viability, T/C (second compound 0.1 µM, first compound 1 µM) 39.8% | viability, T/C (second compound 0.1 µM, first compound 3.16 µM) 10.2% | viability, T/C (second compound 0.316 µM, first compound 0.0316 µM) 96.5% | viability, T/C (second compound 0.316 µM, first compound 0.1 µM) 89.2% | viability, T/C (second compound 0.316 µM, first compound 0.316 µM) 74.8% | viability, T/C (second compound 0.316 µM, first compound 1 µM) 39.9% | viability, T/C (second compound 0.316 µM, first compound 3.16 µM) 9.03% | viability, T/C (second compound 1 µM, first compound 0.0316 µM) 101% | viability, T/C (second compound 1 µM, first compound 0.1 µM) 103% | viability, T/C (second compound 1 µM, first compound 0.316 µM) 81.6% | viability, T/C (second compound 1 µM, first compound 1 µM) 33.3% | viability, T/C (second compound 1 µM, first compound 3.16 µM) 10.9% | viability, T/C (second compound 3.16 µM, first compound 0.0316 µM) 110% | viability, T/C (second compound 3.16 µM, first compound 0.1 µM) 97.6% | viability, T/C (second compound 3.16 µM, first compound 0.316 µM) 68.4% | viability, T/C (second compound 3.16 µM, first compound 1 µM) 20.8% | viability, T/C (second compound 3.16 µM, first compound 3.16 µM) 12.2% | viability, T/C (second compound 10 µM, first compound 0.0316 µM) 91.5% | viability, T/C (second compound 10 µM, first compound 0.1 µM) 89.1% | viability, T/C (second compound 10 µM, first compound 0.316 µM) 48.7% | viability, T/C (second compound 10 µM, first compound 1 µM) 17.7% | viability, T/C (second compound 10 µM, first compound 3.16 µM) 13.8% | viability, T/C (second compound 10 µM, first compound 10 µM) 9.69%
